Measurements reported in patent US20110212986A1, “ANTI-FLAVIVIRUS THERAPEUTIC” (priority 2008, published 2011).
pEC50: −log10 of the molar value. Entries after “also recorded” stand apart in the source; their conditions may differ.

Assays:
[1] = test system: WNV (epidemic strain 3356); experiment: microbe, parasite or virus in culture; assay type: cell-based; conditions: West Nile virus, Vero, 42 h
[2] = test system: G6871A mutant virus (WNV); assay type: cell-based; conditions: Vero cells, 0.1 MOI
in vitro = conditions: African green monkey
[3] = test system: VSV (New Jersey serotype); assay type: cell-based, vesicular stomatitis virus
WNV protease (with NS2B) = WNV protease (with NS2B) (West Nile virus, UniProt Q9Q6P4); experiment: Enzyme assay, recombinant WNV protease; conditions: concentrations up to 100 μM
WNV NTPase = WNV NTPase (West Nile virus, UniProt Q9Q6P4); experiment: Enzyme assay, recombinant WNV NTPase; conditions: concentrations up to 100 μM
WEEV (strain Cova 746) = assay type: cell-based, Western equine encephalitis virus
WNV MTase = WNV MTase (West Nile virus, UniProt Q9Q6P4); experiment: Enzyme assay, recombinant WNV MTase; conditions: concentrations up to 100 μM
[4] = test system: Vero cells containing WNV replicon (Rluc-Neo-Rep); assay type: cell-based, West Nile virus; conditions: 1.5-1 μM for 24 h or 48 h
[5] = test system: Rluc2A-Rep of WNV in BHK-21 cells; assay type: cell-based, West Nile virus
[6] = test system: G6871A mutant WNV replicon (Rluc2A-Rep); assay type: cell-based, West Nile virus; conditions: 1.5 μM; BHK-21 cells
poliovirus = conditions: cited from earlier work
WNV (WT and G6871A MT) = assay type: cell-based; conditions: 1.2 μM; Vero cells, MOI 5; each time point
WNV = experiment: Time-of-addition analysis in WNV infection; assay type: cell-based, West Nile virus; conditions: 1.2 μM; Vero cells, WNV MOI 10; titers at 20 h post-infection
WNV VLP = assay type: cell-based, West Nile virus; conditions: 1.5 μM
[7] = test system: Rluc2A-Rep of DENV-1 in BHK-21 cells; assay type: cell-based, dengue virus
[8] = test system: Vero cells containing DENV-1 replicon (Rluc-Neo-Rep); assay type: cell-based, dengue virus; conditions: 1.5-1 μM for 24 h or 48 h
[9] = test system: lycorine-resistant WNV (P12 viruses); experiment: Resistance assay, lycorine-resistant P12 WNV; assay type: cell-based, West Nile virus; conditions: 1.2 μM
DENV-1 VLP = assay type: cell-based, dengue virus; conditions: 1.5 μM
WNV RdRp = WNV RdRp (West Nile virus, UniProt Q9Q6P4); experiment: Enzyme assay, recombinant WNV RdRp; conditions: concentrations up to 100 μM
HIV-1 = conditions: at a noncytotoxic concentration; Szlavik et al., 2004; cited from earlier work

Sequence of WNV protease (with NS2B) (Q9Q6P4 1506-2124): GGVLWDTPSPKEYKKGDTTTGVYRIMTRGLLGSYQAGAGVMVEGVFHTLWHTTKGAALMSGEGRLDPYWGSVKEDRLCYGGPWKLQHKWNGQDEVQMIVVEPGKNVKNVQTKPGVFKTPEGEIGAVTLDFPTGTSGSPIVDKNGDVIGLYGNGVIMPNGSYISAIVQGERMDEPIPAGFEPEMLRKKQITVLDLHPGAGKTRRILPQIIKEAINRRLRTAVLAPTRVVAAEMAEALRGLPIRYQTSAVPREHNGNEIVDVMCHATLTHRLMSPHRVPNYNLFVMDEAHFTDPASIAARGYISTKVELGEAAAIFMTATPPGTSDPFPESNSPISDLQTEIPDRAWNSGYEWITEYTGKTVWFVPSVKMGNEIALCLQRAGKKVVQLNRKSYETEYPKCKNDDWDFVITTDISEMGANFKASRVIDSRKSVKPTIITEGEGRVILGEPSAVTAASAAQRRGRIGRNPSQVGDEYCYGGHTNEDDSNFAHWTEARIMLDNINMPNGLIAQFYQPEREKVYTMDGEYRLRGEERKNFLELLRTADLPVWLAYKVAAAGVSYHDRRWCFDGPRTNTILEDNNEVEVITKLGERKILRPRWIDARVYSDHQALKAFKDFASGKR
Sequence of WNV protease (with NS2B) (Q9Q6P4 1375-1505): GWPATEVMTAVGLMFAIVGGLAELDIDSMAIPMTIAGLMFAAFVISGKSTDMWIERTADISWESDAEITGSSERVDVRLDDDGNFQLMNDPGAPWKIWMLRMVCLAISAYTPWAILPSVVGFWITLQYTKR
Sequence of WNV NTPase (Q9Q6P4 1506-2124): as the sequence (Q9Q6P4 1506-2124) above
Sequence of WNV MTase (Q9Q6P4 2529-3433): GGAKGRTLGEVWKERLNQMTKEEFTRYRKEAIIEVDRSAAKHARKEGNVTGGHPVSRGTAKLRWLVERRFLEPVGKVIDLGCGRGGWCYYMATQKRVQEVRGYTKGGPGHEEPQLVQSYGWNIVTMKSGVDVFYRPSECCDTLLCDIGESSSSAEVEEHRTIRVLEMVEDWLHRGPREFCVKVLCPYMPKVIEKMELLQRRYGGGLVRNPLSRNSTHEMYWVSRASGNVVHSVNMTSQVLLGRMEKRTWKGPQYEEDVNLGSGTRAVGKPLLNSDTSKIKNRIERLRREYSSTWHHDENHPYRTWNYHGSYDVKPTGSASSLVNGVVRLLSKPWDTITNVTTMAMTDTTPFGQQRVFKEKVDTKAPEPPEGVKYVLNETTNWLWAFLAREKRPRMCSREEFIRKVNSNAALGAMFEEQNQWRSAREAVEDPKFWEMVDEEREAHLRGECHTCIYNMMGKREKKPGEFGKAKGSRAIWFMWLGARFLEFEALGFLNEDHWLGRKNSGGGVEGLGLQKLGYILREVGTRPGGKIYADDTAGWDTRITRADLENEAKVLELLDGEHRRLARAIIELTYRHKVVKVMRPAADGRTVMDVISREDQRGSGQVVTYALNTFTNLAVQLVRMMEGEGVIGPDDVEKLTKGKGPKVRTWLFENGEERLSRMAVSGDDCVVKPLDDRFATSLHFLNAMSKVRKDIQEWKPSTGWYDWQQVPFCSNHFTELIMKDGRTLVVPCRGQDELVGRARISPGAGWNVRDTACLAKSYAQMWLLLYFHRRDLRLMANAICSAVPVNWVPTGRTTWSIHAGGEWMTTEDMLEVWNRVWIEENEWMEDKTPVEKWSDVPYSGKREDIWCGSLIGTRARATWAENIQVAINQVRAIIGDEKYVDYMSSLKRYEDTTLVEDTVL
Sequence of WNV RdRp (Q9Q6P4 2529-3433): as above

CC(=O)O[C@H]1[C@H]2c3cc4c(cc3CN3CCC(=C[C@@H]1OC(C)=O)[C@H]23)OCO4 [Compound 1180]
pEC50 [1]: 5.83

CC(=O)O[C@H]1[C@H]2c3cc4c(cc3CN3CCC(=C[C@@H]1O)[C@H]23)OCO4 [Compound 1181]
pEC50 [1]: 6.07

CC(=O)O[C@H]1[C@H]2c3cc4c(cc3CN(C(=O)OCC(Cl)(Cl)Cl)[C@@H]2C(CCCl)=C[C@@H]1OC(C)=O)OCO4 [Compound 1193]
CC50 (Vero cells; African green monkey): > 300 µM
pEC50 [1]: < 3.52

CC(=O)OCCC1=C[C@H](OC(C)=O)[C@@H](OC(C)=O)[C@H]2c3cc4c(cc3CN(C(=O)OCC(Cl)(Cl)Cl)[C@H]12)OCO4 [Compound 1194]
CC50 (Vero cells; African green monkey): > 300 µM
pEC50 [1]: 4.14

CC(=O)O[C@H]1[C@H]2c3cc4c(cc3C(=O)N3CCC(=C[C@@H]1OC(C)=O)[C@H]23)OCO4 [Compound 1197]
CC50 (Vero cells; African green monkey): > 300 µM
pEC50 [1]: ≤ 3.52

CC(C)(C)[Si](C)(C)O[C@H]1C=C2CCN3Cc4cc5c(cc4[C@H]([C@@H]1O)[C@@H]23)OCO5 [Compound 1198]
pEC50 [1]: 6.14

CC(=O)O[C@@H]1C(=O)C=C2CCN3Cc4cc5c(cc4[C@H]1[C@@H]23)OCO5 [Compound 1200]
CC50 (Vero cells; African green monkey): > 300 µM
resistance of G6871A mutant virus to the compound [2]: resistant
pEC50 [1]: 6.72
CC50 (in vitro): > 300 µM

O[C@H]1[C@H]2c3cc4c(cc3CN3CCC(=C[C@@H]1O)[C@H]23)OCO4 [Lycorine]
CC50 (Vero cells; African green monkey): 24 µM
cell viability (Vero cells; African green monkey): > 90%
decrease of viability of Vero cells (Vero cells; at 31 μM): ~50%
inhibition of VSV (viral titer) [3]: did not inhibit; also recorded: suppressed titers of neither WEEV nor VSV; also recorded: does not inhibit
suppression of WNV protease (with NS2B) activity (WNV protease (with NS2B)): None of the enzyme activities were suppressed
suppression of WNV NTPase activity (WNV NTPase): None of the enzyme activities were suppressed
inhibition of WEEV (viral titer) (WEEV (strain Cova 746)): did not inhibit; also recorded: suppressed titers of neither WEEV nor VSV; also recorded: does not inhibit
suppression of WNV MTase activity (WNV MTase): None of the enzyme activities were suppressed
luciferase activities in WNV Rluc-Neo-Rep cells [4]: reduced luciferase activities
resistance of G6871A mutant virus to the compound [2]: showed a resistance level close to those of the P12 viruses
suppression of early luciferase signals (viral translation), WNV replicon ([5]; 1.5 μM, 2, 4, and 6 h p.t.): ≤ 30%
reduction of late luciferase signals (RNA synthesis), WNV replicon ([5]; 1.5 μM, 24, 30 and 48 h p.t.): > 99%
suppression of reporting signals at 2, 4, and 6 h p.t., G6871A mutant replicon [6]: ≤ 30%
suppression of poliovirus viral translation (poliovirus): ~90%
viral protein expression (NS1, NS3, NS5), western blotting (WNV (WT and G6871A MT)): suppressed viral protein expression
antiviral activity when added after 10 h post-infection (WNV): completely lost its antiviral activity; also recorded: completely lost the inhibitory activity
pEC50 [1]: 6.64
reduction of luciferase signals, WNV VLP-infected cells (WNV VLP): 1,400 fold
suppression of early luciferase signals (viral translation), DENV-1 replicon ([7]; 1.5 μM, 2, 4, and 6 h p.t.): ≤ 30%
reduction of late luciferase signals (RNA synthesis), DENV-1 replicon ([7]; 1.5 μM, 24, 30 and 48 h p.t.): > 99%
luciferase activities in DENV Rluc-Neo-Rep cells [8]: reduced luciferase activities
increase of resistance of the P12 viruses over that of the WT [9]: approximately 100 fold
reduction of viral titers of P12 virus-infected cells ([9]; Vero cells, MOI 0.1, 42 h p.i.): approximately 10 fold
reduction of luciferase signals, DENV-1 VLP-infected cells (DENV-1 VLP): 1,200 fold
suppression of WNV RdRp activity (WNV RdRp): None of the enzyme activities were suppressed
inhibition of HIV-1 (HIV-1): does not inhibit
